This is an account of results in patent US7189702B2, “Glucopyranosyloxypyrazole derivatives and medicinal use thereof” (Kissei Pharmaceutical Co., Ltd., priority 2001, dated 2007).

System in one assay: not given
Test: not given
The note with it: normal mice; J. Med. Chem., Vol. 39, pp. 3920–3928 (1996); cited from earlier work.
`CSc1ccc(Cc2c(C(F)(F)F)[nH][nH]c2=O)cc1` [WAY-123783, reference compound]: the “amount of excreted glucose” value was “increased”.

For a further assay, the target named is T1, human SGLT2 (Homo sapiens, UniProt P31639, I433V).
T1 construct: expressed in transfected cells; host or cells: COS-7 cells (RIKEN CELL BANK RCB0539), transient, electroporation of KL29
T1 sequence (P31639 1-672 I433V): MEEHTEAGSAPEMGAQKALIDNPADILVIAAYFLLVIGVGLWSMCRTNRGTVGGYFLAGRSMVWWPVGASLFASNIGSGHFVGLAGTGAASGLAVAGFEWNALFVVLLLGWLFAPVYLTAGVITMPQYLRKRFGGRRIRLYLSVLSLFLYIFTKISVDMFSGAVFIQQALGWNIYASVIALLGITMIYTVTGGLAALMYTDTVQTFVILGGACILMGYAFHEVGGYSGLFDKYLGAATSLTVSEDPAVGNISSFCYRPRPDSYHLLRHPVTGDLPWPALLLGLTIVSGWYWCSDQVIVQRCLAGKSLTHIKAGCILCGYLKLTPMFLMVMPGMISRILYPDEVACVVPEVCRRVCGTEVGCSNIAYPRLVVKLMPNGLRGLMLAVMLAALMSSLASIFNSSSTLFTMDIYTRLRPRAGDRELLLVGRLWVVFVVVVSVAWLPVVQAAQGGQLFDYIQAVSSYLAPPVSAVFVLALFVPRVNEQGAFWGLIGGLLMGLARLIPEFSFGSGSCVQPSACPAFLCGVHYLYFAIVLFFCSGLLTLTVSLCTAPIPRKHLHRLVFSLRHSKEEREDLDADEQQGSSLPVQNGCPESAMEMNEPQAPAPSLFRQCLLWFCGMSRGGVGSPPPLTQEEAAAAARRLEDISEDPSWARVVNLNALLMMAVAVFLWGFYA
Put plainly: Assay for inhibitory effect on human SGLT2 activity (uptake of methyl-α-D-glucopyranoside). The note with it: inhibition of methyl-α-D-(U-14C)glucopyranoside uptake, COS-7 cells expressing transiently human SGLT2, 37° C., 2 hours. It counts as cell-based. As to the method:
Assay for Inhibitory Effect on Human SGLT2 Activity
1) Construction of the Plasmid Vector Expressing Human SGLT2
Preparation of the cDNA library for PCR amplification was performed by reverse transcription of a total RNA deprived from human kidney (Ori gene) with oligo dT as the primer, using SUPERSCRIPT Preamplification System (Gibco-BRL: LIFE TECHNOLOGIES). The DNA fragment coding for human SGLT2 was amplified by the PCR reaction, in which the human kidney cDNA library described above was used as the template and the following oligo nucleotides 0702F and 0712R, presented as Sequence Numbers 1 and 2 respectively, were used as the primers. The amplified DNA fragment was ligated into pCR-Blunt (Invitrogen), a vector for cloning, according to standard method of the kit. The Escherichia coli HB101 was transformed according to usual method and then selection of the transformants was performed on the LB agar medium containing 50 μg/mL of kanamycin. After plasmid DNA was extracted and purified from the one of the transformants, amplifying of the DNA fragment coding for human SGLT2 was performed by the PCR reaction, in which the following oligo nucleotides 0714F and 0715R, presented as Sequence Numbers 3 and 4 respectively, were used as the primers. The amplified DNA fragment was digested with restriction enzymes, Xho I and Hind III, and then purified with Wizard Purification System (Promega). This purified DNA fragment was inserted at the corresponding restriction sites of pcDNA3.1 (−) Myc/His-B (Invitrogen), a vector for expressing of fusion protein. The Escherichia coli HB101 was transformed according to usual method and then selection of the transformant was performed on the LB agar medium containing 100 μg/mL of ampicillin. After plasmid DNA was extracted and purified from this transformant, the base sequence of the DNA fragment inserted at the multi-cloning sites of the vector pcDNA3.1 (−) Myc/His-B was analyzed. […] Sequentially, a clone in which valine is substituted for isoleucine-433 was obtained. This plasmid vector expressing human SGLT2 in which the peptide presented as Sequence Number 5 is fused to the carboxyl terminal alanine residue was designated KL29.
2) Preparation of the Cells Expressing Transiently Human SGLT2
KL29, the plasmid coding human SGLT2, was transfected into COS-7 cells (RIKEN CELL BANK RCB0539) by electroporation. Electroporation was performed with GENE PULSER II (Bio-Rad Laboratories) under the condition: 0.290 kV, 975 μF, 2×10^6 cells of COS-7 cell and 20 μg of KL29 in 500 μL of OPTI-MEM I medium (Gibco-BRL: LIFE TECHNOLOGIES) in the 0.4 cm type cuvette. After the gene transfer, the cells were harvested by centrifugation and resuspended with OPTI-MEM I medium (1 mL/cuvette). To each well in 96-wells plate, 125 μL of this cell suspension was added. After overnight culture at 37° C. under 5% CO2, 125 μL of DMEM medium which is containing 10% of fetal bovine serum (Sanko Jyunyaku), 100 units/mL sodium penicillin G (Gibco-BRL: LIFE TECHNOLOGIES), and 100 μg/mL streptomycin sulfate (Gibco-BRL: LIFE TECHNOLOGIES) was added to each well. These cells were cultured until the next day and then they were used for the measurement of the inhibitory activity against the uptake of methyl-α-D-glucopyranoside.
3) Measurement of the Inhibitory Activity Against the Uptake of methyl-α-D-glucopyranoside
After a test compound was dissolved in dimethyl sulfoxide and diluted with the uptake buffer (a pH 7.4 buffer containing 140 mM sodium chloride, 2 mM potassium chloride, 1 mM calcium chloride, 1 mM magnesium chloride, 5 mM methyl-α-D-glucopyranoside, 10 mM 2-[4-(2-hydroxyethyl)-1-piperazinyl]ethane sulfonic acid and 5 mM tris(hydroxymethyl)aminomethane), each diluent was used as test sample for measurement of the inhibitory activity. […]
Consider `Cc1[nH]nc(O[C@@H]2O[C@H](CO)[C@@H](O)[C@H](O)[C@H]2O)c1Cc1ccc(OC2CCC2)cc1` [Example 27, 4-{[4-(Cyclobutyloxy)phenyl]methyl}-3-(β-D-glucopyranosyloxy)-5-methyl-1H-pyrazole], for which the midpoint of inhibition, the IC50, lay at 210 nM.

Compound `Cc1[nH]nc(O[C@@H]2O[C@H](CO)[C@@H](O)[C@H](O)[C@H]2O)c1Cc1ccc(-c2nccs2)cc1` [Example 23, 3-(β-D-Glucopyranosyloxy)-5-methyl-4-{[4-(thiazol-2-yl)phenyl]methyl}-1H-pyrazole] registered an IC50 of 46 nM.

Consider `Cc1[nH]nc(O[C@@H]2O[C@H](CO)[C@@H](O)[C@H](O)[C@H]2O)c1Cc1ccc(C=C2CC2)cc1` [Example 20, 3-(β-D-Glucopyranosyloxy)-5-methyl-4-{[4-(cyclopropylidenemethyl)phenyl]methyl}-1H-pyrazole], for which the IC50 worked out at 15 nM.

The compound `CCc1ccc(Cc2c(O[C@@H]3O[C@H](CO)[C@@H](O)[C@H](O)[C@H]3O)nn(CCCO)c2C)cc1` [Example 39, 4-[(4-Ethylphenyl)methyl]-3-(β-D-glucopyranosyloxy)-1-(3-hydroxypropyl)-5-methyl-1H-pyrazole] displayed a half-inhibitory concentration (IC50) of 47 nM.

The compound `CSc1ccc(Cc2c(O[C@@H]3O[C@H](CO)[C@@H](O)[C@H](O)[C@H]3O)nn(CC3CC3)c2C)cc1` [Example 38, 1-(Cyclopropylmethyl)-3-(β-D-glucopyranosyloxy)-5-methyl-4-[(4-methylthiophenyl)methyl]-1H-pyrazole] displayed an IC50 of 45 nM.

`Cc1[nH]nc(O[C@@H]2O[C@H](CO)[C@@H](O)[C@H](O)[C@H]2O)c1Cc1ccc(C2CC2)cc1` [Example 21, 3-(β-D-Glucopyranosyloxy)-5-methyl-4-[(4-cyclopropylphenyl)methyl]-1H-pyrazole] had a 50% inhibitory concentration (IC50) of 18 nM.

Take `CC(C)=Cc1ccc(Cc2c(O[C@@H]3O[C@H](CO)[C@@H](O)[C@H](O)[C@H]3O)n[nH]c2C)cc1` [Example 25, 3-(β-D-Glucopyranosyloxy)-5-methyl-4-{[4-(2-methylprop-1-en-1-yl)phenyl]methyl}-1H-pyrazole]: the IC50 is 65 nM.

With `CSc1ccc(Cc2c(C(F)(F)F)[nH][nH]c2=O)cc1` [WAY-123783, reference compound], the 50% inhibitory concentration (IC50) is over 100000 nM.

As to `Cc1c(Cc2ccc(C3CC3)cc2)c(O[C@@H]2O[C@H](CO)[C@@H](O)[C@H](O)[C@H]2O)nn1CC1CC1` [Example 32, 3-(β-D-Glucopyranosyloxy)-5-methyl-1-(cyclopropylmethyl)-4-[(4-cyclopropylphenyl)methyl]-1H-pyrazole], the midpoint of inhibition, the IC50, lay at 26 nM.

With `CC/C=C/c1ccc(Cc2c(O[C@@H]3O[C@H](CO)[C@@H](O)[C@H](O)[C@H]3O)n[nH]c2C)cc1` [Example 22, (E)-4-{[4-(But-1-en-1-yl)phenyl]methyl}-3-(β-D-glucopyranosyloxy)-5-methyl-1H-pyrazole], half-maximal inhibition (IC50) was put at 41 nM.

With `Cc1[nH]nc(O[C@@H]2O[C@H](CO)[C@@H](O)[C@H](O)[C@H]2O)c1Cc1ccc(-c2ccc(F)cc2)cc1` [Example 26, 4-{[4-(4-Fluorophenyl)phenyl]methyl}-3-(β-D-glucopyranosyloxy)-5-methyl-1H-pyrazole], the concentration for half-maximal inhibition (IC50) is 150 nM.

For the compound `OCCCc1ccc(Cc2c(O[C@@H]3O[C@H](CO)[C@@H](O)[C@H](O)[C@H]3O)n[nH]c2C(F)(F)F)cc1` [Example 24, 3-(β-D-Glucopyranosyloxy)-4-{[4-(3-hydroxypropyl)phenyl]methyl}-5-trifluoromethyl-1H-pyrazole], the IC50 was determined as 57 nM.

Staying with this assay, now noted: statement in words.
As for `CSc1ccc(Cc2c(C(F)(F)F)[nH][nH]c2=O)cc1` [WAY-123783, reference compound], the “inhibitory activity in human SGLT2” value is “extremely weak”.
